This is an account of results in patent US20230026259A1, “CA2 COMPOSITIONS AND METHODS FOR TUNABLE REGULATION” (Obsidian Therapeutics, Inc., priority 2019, published 2023).

Assay type in all cases: cell-based
Assay [1] concerns NIH3T3 cells. The assay can be described thus: Immunoblotting of cell lysates for GFP after ligand treatment. The settings on record: NIH3T3 cells, 0.3, 1, 3, 10 or 30 μM Acetazolamide, 24 hours. Here is the method: The protein expression in the presence of ligand was measured by immunoblotting the cell lysates for GFP.
The protein expression in the presence of ligand was measured by immunoblotting cell lysates for GFP.

The test system of assay [2] is NIH3T3 cells. The assay can be described thus: Destabilization mutant screening of human CA2 linked to GFP, ligand response by FACS (Valdecoxib, Celecoxib, Acetazolamide). Here is the method: To identify destabilizing mutations of human CA2 that are stabilized upon ligand binding to CA2, two rounds of mutant screening were performed, using a lentivirus CA2 mutant library provided by Genscript (China). These methods were used to generate a library of mutant polypeptides using mutagenesis primers and error prone PCR. Lentiviral vectors expressing the template, wild-type human CA2 operably linked to GFP(OT-001986) was also provided by Genscript along with the CA2 mutant library. The library was packaged into lentivirus, transduced into NIH3T3 cells at a multiplicity of infection (MOI) of approximately 0.3 and select stable cell pools were derived by selecting with selection marker puromycin.
To identify cell pools containing destabilizing mutants of CA2 that are stabilizing when CA2 is bound to its corresponding ligand, cells were sorted using FACS. In the initial round, the bottom 15% of population that was GFP negative in the absence of ligand was selected. Cells were expanded and then treated with 10 μM Celecoxib for 24 hours and harvested for cell sorting. The top 11% GFP positive cells which were also responsive to ligand treatment compared to untreated were collected. Celecoxib was removed from the cultures and replaced with DMSO. […] Genomic DNA was isolated and amplified CA2 mutants were reintroduced to the lentiviral vectors where CA2 was operably linked to GFP. The constructs were transduced into NIH3T3 cells with lentivirus vectors for each clone. The cells were treated with 10 μM Valdecoxib or 10 μM Celecoxib for 24 hours and analyzed by FACS. […] In Table 25, the Construct ID (OT-XXXXXX) refers to the construct which includes the referenced CA2 mutant and the Library ID (LibCXXXXXX) refers to the CA2 mutant itself.
The response of NIH3T3 cells to varying doses of Valdecoxib or Celecoxib for 24 hours was measured and analyzed by FACS.
Clones treated with different ligands were compared to examine the behavior of each mutant with the ligands.

Assay [3] deals with human primary T cells. The assay is described as follows: IL15-dependent expansion: T cell numbers and CD4/CD8 ratio by flow cytometry. Here is the method:
(§1) To test IL15-dependent expansion, beads were removed on day 10 and cells were washed. […] The T cell numbers (Table 30) and the change in CD4/CD8 ratio (Table 31) were determined by flow cytometry.

Assay [4] has as its system human primary T cells. The assay is described as follows: Expression of IL15 chimeric constructs by flow cytometry (percent IL15 positive cells). The note with it: for percentage of IL15 positive cells: human primary T cells, day 6, no ligand stated.
Description: In vitro activity of IL15 chimeric constructs OT-002019 ((Met; CD34 (aa 1-32 of WT, M1G, S32A); IL15 (30-162 of WT); Linker ((GS)15); CD8a Hinge and Transmembrane Domain; Linker (GS); stop), amino acid SEQ ID NO: 210876, nucleic acid SEQ ID NO: 210877) and OT-002090 ((Ig Kappa light chain leader; IL15 (49-162 of WT); Linker ((GS)15); B7-1 Hinge, Transmembrane Domain and Tail; Linker (GS); stop), amino acid SEQ ID NO: 210878, nucleic acid SEQ ID NO: 210879) and CA2 regulated IL15 chimeric construct (OT-002094) were tested in human primary T cells. Human primary T cells were transduced with lentivirus 24 hours after activation with CD3/CD28 beads. Cells were expanded for 10 days. […] The percentage of IL15 positive cells obtained for each treatment group is as follows (a) OT-002019: 82.3% (b) OT-002090: 43.6% (c) OT-002094 with DMSO: 0.7% (d) OT-002094 with 10 μM Acz: 27.9% and (e) untransduced (UT): 0.3%.
as §1
On the technique in general: In flow cytometry, cells or beads pass a laser one at a time.

The mark [5] stands for this setting: day 0 in culture, untransduced T cells + exogenous IL15 1 ng/ml.
Where [6] appears, read: day 3 in culture, untransduced T cells + exogenous IL15 1 ng/ml.
Where [7] appears, read: day 7 in culture, untransduced T cells + exogenous IL15 1 ng/ml.
Setting [8] is: day 10 in culture, untransduced T cells + exogenous IL15 1 ng/ml.

For the substance “CA2 (aa 2-260 of WT, I59N, G102R) [LibC000184]”, in the assay with NIH3T3 cells [1], the “GFP protein expression by immunoblot, Acetazolamide” value is given as “stabilization of GFP with increasing ligand doses”. Moreover, the “MFI, comparative analysis” value in the assay on NIH3T3 cells [2] (NIH3T3, Acetazolamide 10 μM) was 9295; in the assay on NIH3T3 cells [2] (NIH3T3, Acetazolamide 30 μM) it was 10900; in the assay with NIH3T3 cells [2] (NIH3T3, DMSO) it was 380. Also, the “MFI, comparative analysis, normalized to parental day 1” value is listed as 4660.217 in the assay with NIH3T3 cells [2] (NIH3T3, Celecoxib μM (concentration not given)) and 3478.892 in the assay with NIH3T3 cells [2] (NIH3T3, Valdecoxib μM (concentration not given)).
For the substance IL15, the “CD4/CD8 Ratio” value in the assay with human primary T cells [3] (setting [5]) is 5.64; in the assay with human primary T cells [3] (setting [6]), 2.57; with human primary T cells [3] (setting [7]), 0.64; in the assay with human primary T cells [3] (setting [8]), 0.28. Besides, the “T Cell Numbers” value in the assay with human primary T cells [3] (setting [5]) was 1.0E+06; in the assay on human primary T cells [3] (setting [6]), 3.2E+06; in the assay with human primary T cells [3] (setting [7]) it was 5.4E+06; with human primary T cells [3] (setting [8]), 1.2E+07. For the same substance, the “Percent of cells IL15 positive” value is 0% in the assay with human primary T cells [4] (setting [5]), 1% in the assay with human primary T cells [4] (setting [6]), 0% in the assay with human primary T cells [4] (setting [7]) and 1% in the assay on human primary T cells [4] (setting [8]).
Turning to “(Ig Kappa light chain leader; IL15 (49-162 of WT); Linker ((GS)15); B7-1 Hinge, Transmembrane Domain and Tail; Linker (GS); stop) [OT-002090]”, the “CD4/CD8 Ratio” value with human primary T cells [3] (day 0 in culture, media alone) stood at 3.79; in the assay with human primary T cells [3] (day 3 in culture, media alone), 0.66; with human primary T cells [3] (day 7 in culture, media alone) it was 0.09; in the assay on human primary T cells [3] (day 10 in culture, media alone), 0.04. Also, the “T Cell Numbers” value was 1.0E+06 with human primary T cells [3] (day 0 in culture, media alone); 1.3E+06 in the assay on human primary T cells [3] (day 3 in culture, media alone); 4.1E+06 in the assay on human primary T cells [3] (day 7 in culture, media alone); 1.0E+07 with human primary T cells [3] (day 10 in culture, media alone). Besides, the “Percent of cells IL15 positive” value with human primary T cells [4] (day 0 in culture, media alone) amounted to 30%; in the assay with human primary T cells [4] (day 3 in culture, media alone), 40%; with human primary T cells [4] (day 7 in culture, media alone), 38%; with human primary T cells [4] (day 10 in culture, media alone), 16%. In the assay on human primary T cells [4], the “percentage of IL15 positive cells” value was determined as 43.6%.
In the case of “(Met; CD34 (aa 1-32 of WT, M1G, S32A); IL15 (30-162 of WT); Linker ((GS)15); CD8a Hinge and Transmembrane Domain; Linker (GS); stop) [OT-002019]”, the “CD4/CD8 Ratio” value in the assay on human primary T cells [3] (day 0 in culture, 3 uM ACZ) was 2.51; in the assay with human primary T cells [3] (day 0 in culture, 10 uM ACZ) it was 2.51; with human primary T cells [3] (day 0 in culture, media alone) it was 2.51; in the assay with human primary T cells [3] (day 3 in culture, 3 uM ACZ) it was 0.46; in the assay with human primary T cells [3] (day 3 in culture, 10 uM ACZ) it was 0.47; in the assay with human primary T cells [3] (day 3 in culture, media alone), 0.45. For the same substance, the “CD4/CD8 Ratio” value with human primary T cells [3] (day 7 in culture, 3 uM ACZ) was determined as 0.06; in the assay on human primary T cells [3] (day 7 in culture, 10 uM ACZ), 0.07; with human primary T cells [3] (day 7 in culture, media alone) it was 0.06; in the assay on human primary T cells [3] (day 10 in culture, 3 uM ACZ), 0.02; with human primary T cells [3] (day 10 in culture, 10 uM ACZ), 0.03; in the assay with human primary T cells [3] (day 10 in culture, media alone), 0.02. For the same substance, the “T Cell Numbers” value is recorded as 1.0E+06 in the assay on human primary T cells [3] (day 0 in culture, 3 uM ACZ); 1.0E+06 in the assay with human primary T cells [3] (day 0 in culture, 10 uM ACZ); 1.0E+06 with human primary T cells [3] (day 0 in culture, media alone); 1.7E+06 in the assay on human primary T cells [3] (day 3 in culture, 3 uM ACZ); 1.7E+06 with human primary T cells [3] (day 3 in culture, 10 uM ACZ); 2.0E+06 in the assay with human primary T cells [3] (day 3 in culture, media alone). Further, the “T Cell Numbers” value in the assay with human primary T cells [3] (day 7 in culture, 3 uM ACZ) is reported as 5.7E+06; in the assay on human primary T cells [3] (day 7 in culture, 10 uM ACZ), 5.6E+06; in the assay with human primary T cells [3] (day 7 in culture, media alone) it was 6.7E+06; in the assay with human primary T cells [3] (day 10 in culture, 3 uM ACZ), 1.7E+07; in the assay with human primary T cells [3] (day 10 in culture, 10 uM ACZ), 1.6E+07; in the assay on human primary T cells [3] (day 10 in culture, media alone), 2.1E+07. The “Percent of cells IL15 positive” value in the assay with human primary T cells [4] (day 0 in culture, 3 uM ACZ) is 75%; in the assay with human primary T cells [4] (day 0 in culture, 10 uM ACZ), 75%; in the assay with human primary T cells [4] (day 0 in culture, media alone) it was 75%; in the assay with human primary T cells [4] (day 3 in culture, 3 uM ACZ), 82%; in the assay with human primary T cells [4] (day 3 in culture, 10 uM ACZ), 82%; in the assay with human primary T cells [4] (day 3 in culture, media alone), 82%. Further, the “Percent of cells IL15 positive” value in the assay on human primary T cells [4] (day 7 in culture, 3 uM ACZ) turned out to be 84%; with human primary T cells [4] (day 7 in culture, 10 uM ACZ), 85%; in the assay with human primary T cells [4] (day 7 in culture, media alone), 84%; in the assay on human primary T cells [4] (day 10 in culture, 3 uM ACZ), 78%; with human primary T cells [4] (day 10 in culture, 10 uM ACZ), 79%; in the assay on human primary T cells [4] (day 10 in culture, media alone), 76%. The “percentage of IL15 positive cells” value in the assay with human primary T cells [4] was 82.3%.
